The nature of data set [1]: Saccharide sensing, absorbance and fluorescence response. The procedure: Solvents including MeCN, MeOH, EtOH, DMSO and buffer were initially screened for sugar sensing. […] DMSO mixtures were chosen for further studies.
The final pH 7.4 phosphate buffer concentration was 12.5 mM.

Data set [2] can be described thus: Spectral properties of rhodamine bis-boronic acids and precursors (Table 5). It counts as physicochemical. The source says:
Excitation and emission spectra were normalized to their absorbance at the excitation wavelength, and are proportional to quantum yield.

Data set [3] can be described thus: Saccharide sensing, response to ribose. The following applies: DMSO:buffer 1:1, entire concentration range investigated. The protocol: The spectral behavior of both compounds 51 and 53 in the presence of saccharides was further investigated in both 1:1 and 1:9 DMSO-buffer (final pH 7.4 phosphate buffer concentration of 12.5 mM) solutions. Both bis-boronic acids responded to binding of sugars through a red shift in their emission and the expected increase in fluorescence intensity.
FIGS. 37A-37D show the response of bis-boronic acid 51 to fructose, ribose and glucose under the two solvent conditions mentioned above. […] At high sugar concentrations, the response for all three sugars converged. […] An approximately 1.5-fold increase in both absorbance and fluorescence was observed over the entire concentration range investigated. Binding of all three sugars occurred at lower concentrations as compared to the 1:9 DMSO:buffer system, with the response of both ribose and fructose having already plateaued at 10 mM, the lowest concentration investigated. Unlike the 1:9 solvent system, there were significant spectral differences in the responses toward different sugars (FIG. 37C compared to FIG. 37A).

Data set [4] can be described thus: Saccharide sensing, response to fructose. The following applies: DMSO:buffer 1:9; estimated from 140-fold fluorescence and 3-fold absorbance increase.
The mark [5] stands for this setting: DMSO:buffer 1:9, high sugar concentrations, all sugars.
The mark [6] stands for this setting: DMSO:buffer 1:1, pH 7.4 phosphate buffer 12.5 mM.
The mark [7] stands for this setting: DMSO:buffer 1:9, pH 7.4 phosphate buffer 12.5 mM.

The values below come from patent US10197574B2, “Analyte detection using near-infrared fluorophores” (Portland State University, priority 2011, dated 2019).

Marks after values point to notes of the source that are not given here.

For `O=C(O)c1ccccc1-c1c2ccc(NCc3ccccc3B(O)O)cc2oc2c1ccc1cc(=NCc3ccccc3B(O)O)ccc12` [Compound 51], in data set [1] (setting [5]), the increase in absorbance is listed as approximately 2 fold and the increase in fluorescence entry was “greater than 5 fold”. In data set [2] (setting [6]), this molecule displayed an Abs of 579 nm, a Brightness of 8037, an Em of 643 nm and an Ex of 580 nm. In data set [2] (setting [6]), this molecule returned a Q.Y. of 0.35 and a ε of 23096 M⁻¹ cm⁻¹. In data set [2] (setting [7]), the Abs is reported as 560 nm, the Brightness was 3032^e, the Em was 638 nm and the Ex is recorded as 568 nm. In addition, in data set [2] (setting [7]), the Q.Y. was 0.15 and the ε was 20326 M⁻¹ cm⁻¹. Further, in data set [3], the increase in absorbance result is “approximately 1.5 fold” and the increase in fluorescence result is “approximately 1.5 fold”.
As for `O=C(O)c1ccccc1-c1c2ccc3cc(NCc4ccccc4B(O)O)ccc3c2oc2c1ccc1cc(=NCc3ccccc3B(O)O)ccc12` [Compound 53], in data set [4], the “quantum yield after binding” value was 0.186. In data set [1] (DMSO:buffer 1:1, all three sugars, emission at 720 nm, excitation at 640 nm), the increase in emission was approximately 5 fold.
